Columns and labels:
Assay type in all cases: biochemical
[1] = molecular target: T1, MMP-9 (Homo sapiens, UniProt P14780); test: In Vitro Gelatinase Assay; conditions: human neutrophil gelatinase B, thiopeptide substrate
T1 construct: from tissue; host or cells: human neutrophils
Experimental: In Vitro Gelatinase Assay
The assay is based on the cleavage of the thiopeptide substrate ((Ac-Pro-Leu-Gly(2-mercapto-4-methyl-pentanoyl)-Leu-Gly-OEt), available from Bachem Bioscience) by the enzyme gelatinase, releasing the substrate product which reacts colorimetrically with DTNB ((5,5'-dithio-bis(2-nitro-benzoic acid)). This assay is disclosed in Weingarten et al., "Spectrophotometric Assay for Vertebrate Collegenase", Anal. Biochem., 147:437-440, (1985). The enzyme activity is measured by the rate of the color increase.
The thiopeptide substrate was made up fresh as a 20 mM stock in 100% DMSO and the DTNB was dissolved in 100% DMSO as a 100 mM stock and stored in the dark at room temperature. The substrate and the DTNB were diluted together to 1 mM with substrate buffer (50 mM HEPES, pH 7.5, 5 mM CaCl2) before use. The stock of human neutrophil gelatinase B was diluted with assay buffer (50 mM HEPES, pH 7.5, 5 mM CaCl2, 0.02% Brij) to a final concentration of 0.15 nM.
The assay buffer, enzyme, DTNB/substrate (500 µM final concentration) and vehicle or inhibitor were added to a 96 well plate (total reaction volume of 200µl) and the increase in color was monitored spectrophotometrically for 5 minutes at 405 nm on a plate reader.
The increase in OD405 was plotted and the slope of the line was calculated. The slope represents the reaction rate. The linearity of the reaction rate was confirmed (r^2 >0.85) and the mean (x ± sem) of the control rate was calculated and compared for statistical significance (p <0.05) with drug-treated rates using Dunnett's multiple comparison test. Dose-response relationships were generated using multiple doses of drug and IC50 values with 95% CI were estimated using linear regression (IPRED, HTB).

[2] = molecular target: T2, TACE (Homo sapiens, UniProt P78536); test: Procedure for Measuring TACE Inhibition; conditions: TACE (Immunex), fluorescent peptidyl substrate
T2 construct: purchased Immunex
Experimental: The plates were incubated for 10 minutes at room temperature. The reaction was initiated by addition of a fluorescent peptidyl substrate (final concentration 100 µM) to each well with shaking on a shaker for 5 sec. The reaction was read (excitation 340 nm, emission 420 nm) for 10 min. and the increase in fluorescence over time was plotted as a linear line. The slope of the line was calculated and this represents the reaction rate. […] The mean (x±sem) of the control rate was calculated and compared for statistical significance (p<0.05) with drug-treated rates using Dunnett's multiple comparison test.

[3] = molecular target: T3, MMP-1 (Homo sapiens, UniProt P03956); test: In Vitro Collagenase Assay; conditions: human recombinant fibroblast collagenase, fluorogenic peptide substrate
T3 construct: human recombinant fibroblast collagenase (truncated, mw=18,828)
T3 sequence (P03956 100-269 limits assumed): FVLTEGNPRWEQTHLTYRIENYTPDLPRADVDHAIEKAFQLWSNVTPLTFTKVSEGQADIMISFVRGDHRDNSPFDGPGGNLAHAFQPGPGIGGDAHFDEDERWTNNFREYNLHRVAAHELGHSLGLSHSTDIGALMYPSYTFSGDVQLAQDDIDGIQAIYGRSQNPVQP
Text: In Vitro Collagenase Assay
This assay was based on the cleavage of a peptide substrate ((Dnp-Pro-Cha-Gly-Cys(Me)-His-Ala-Lys(NMa)-NH2), available from Peptide International, Inc.) by collagenase releasing the fluorescent NMa group which was quantitated on the fluorometer as disclosed in Bickett et al., "A High Throughput Fluorogenic Substrate for Interstitial Collagenase (MMP-1) and Gelatinase (MMP-9)", Anal. Biochem., 212:58-64, (1993). Dnp quenches the NMa fluorescence in the intact substrate.
The assay was run in HCBC assay buffer (50 mM HEPES, pH 7.0, 5 mM Ca^+2, 0.02% Brij, 0.5% Cysteine), with human recombinant fibroblast collagenase (truncated, mw=18,828, from Wyeth-Ayerst Research, Radnor, PA). The substrate was dissolved in methanol and stored frozen in 1 mM aliquots. Collagenase was stored frozen in buffer in 25 µM aliquots. In conducting the assay, the substrate was dissolved in HCBC buffer to a final concentration of 10 µM and collagenase to a final concentration of 5 nM. The compounds being examined were dissolved in methanol, DMSO, or HCBC. The methanol and DMSO were diluted in HCBC to < 1.0%. The compounds were added to a 96 well plate containing enzyme and the reaction was started by the addition of substrate.
The reaction was read (excitation 340 nm, emission 444 nm) for 10 min. and the increase in fluorescence over time was plotted as a linear line. The slope of the line was calculated representing the reaction rate. The linearity of the reaction rate was confirmed (r^2 >0.85). The mean (x ± sem) of the control rate was calculated and compared for statistical significance (p <0.05) with drug-treated rates using Dunnett's multiple comparison test. Dose-response relationships were generated using multiple doses of drug and IC50 values with 95% CI were estimated using linear regression.

[4] = molecular target: MMP-13 (Homo sapiens, UniProt P45452); test: MMP-13 inhibition (Table 1, no method described)

T1 sequence (P14780 94-707): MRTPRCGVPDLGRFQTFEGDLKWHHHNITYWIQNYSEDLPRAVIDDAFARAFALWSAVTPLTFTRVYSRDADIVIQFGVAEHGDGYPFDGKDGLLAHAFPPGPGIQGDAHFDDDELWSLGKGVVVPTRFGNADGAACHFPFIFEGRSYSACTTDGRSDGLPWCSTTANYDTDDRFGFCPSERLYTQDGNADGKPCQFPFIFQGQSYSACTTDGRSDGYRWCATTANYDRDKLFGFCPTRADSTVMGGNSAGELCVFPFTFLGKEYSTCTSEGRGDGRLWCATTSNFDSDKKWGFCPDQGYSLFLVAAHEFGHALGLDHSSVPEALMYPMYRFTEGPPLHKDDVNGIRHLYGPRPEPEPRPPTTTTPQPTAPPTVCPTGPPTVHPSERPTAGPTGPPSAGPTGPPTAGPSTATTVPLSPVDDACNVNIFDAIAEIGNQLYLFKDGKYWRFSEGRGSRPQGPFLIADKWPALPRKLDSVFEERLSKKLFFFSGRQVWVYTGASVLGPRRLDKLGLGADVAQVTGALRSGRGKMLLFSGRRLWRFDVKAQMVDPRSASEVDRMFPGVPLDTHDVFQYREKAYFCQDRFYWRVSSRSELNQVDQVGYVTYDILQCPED
T2 sequence (P78536 215-824): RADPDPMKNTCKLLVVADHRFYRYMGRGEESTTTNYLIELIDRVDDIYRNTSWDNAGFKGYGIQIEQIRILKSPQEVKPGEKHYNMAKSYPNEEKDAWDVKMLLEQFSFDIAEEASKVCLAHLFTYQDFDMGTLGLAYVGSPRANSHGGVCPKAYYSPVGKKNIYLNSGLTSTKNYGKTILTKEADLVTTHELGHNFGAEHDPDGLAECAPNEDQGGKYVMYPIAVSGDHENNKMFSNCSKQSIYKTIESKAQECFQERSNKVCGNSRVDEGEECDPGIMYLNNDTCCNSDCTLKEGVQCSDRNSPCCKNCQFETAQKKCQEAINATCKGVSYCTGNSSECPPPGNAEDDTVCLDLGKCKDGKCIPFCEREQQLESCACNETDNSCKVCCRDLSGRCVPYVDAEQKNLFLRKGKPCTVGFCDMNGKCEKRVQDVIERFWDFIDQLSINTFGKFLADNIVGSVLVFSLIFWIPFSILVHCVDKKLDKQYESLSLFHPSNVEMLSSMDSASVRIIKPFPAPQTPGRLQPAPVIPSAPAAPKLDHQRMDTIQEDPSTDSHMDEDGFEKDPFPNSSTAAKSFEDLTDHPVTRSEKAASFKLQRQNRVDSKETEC

IC50 [1]	IC50 [2]	IC50 [3]	IC50 [4]	Compound
33 nM	10 nM	841 nM	29 nM	4-(4-[4-Methoxybut-2-ynyloxy]benzenesulfonyl)-1-(3-pyridinylcarbonyl)-2,3,4,5-tetrahydro-1H-[1,4]benzodiazepine-3-carboxylic acid, hydroxyamide [Example 58]
2 nM	33 nM	125 nM	7 nM	4-(4-But-2-ynyloxybenzene-sulfonyl)-1-methoxyacetyl-2,3,4,5-tetrahydro-1H-[1,4]benzodiazepine-3-carboxylic acid, hydroxyamide [Example 57]
36 nM		165 nM		CC#CCOc1ccc(S(=O)(=O)N2Cc3ccccc3N(C(=O)c3ccccc3)CC2C(=O)NO)cc1 (centres unmarked) [Example 3, 1-Benzoyl-4-(4-but-2-ynyloxybenzenesulfonyl)-2,3,4,5-tetrahydro-1H-[1,4]-benzodiazepine-3-carboxylic acid, hydroxyamide]
228 nM	16 nM	835 nM	77 nM	CC#CCOc1ccc(S(=O)(=O)N2Cc3ccccc3N(C(C)=O)CC2C(=O)NO)cc1 (centres unmarked) [Example 1, 1-Acetyl-4-(4-but-2-ynyloxbenzenesulfonyl)-2,3,4,5-tetrahydro-1H-[1,4]benzodiazepine-3-carboxylic acid, hydroxyamide]
